# Measurements taken from patent US20070161560A1, “Use of vanilloid 4 receptor and antagonists or agonists thereof for treating diseases associated with pain” (SmithKline Beecham plc, priority 2000, published 2007).
# Assays:
# Assay type in all cases: cell-based
# [1] = tested on: HEK293 cells transfected with empty vector; test: FLIPR cytoplasmic calcium (Fluo-3), HEK293 cells transfected with empty vector; details: result in words
# Protocol: (§1) The VR4 cDNA was inserted into the expression vector pcDNA3.1 V5-His (Invitrogen). Wildtype HEK293 cells, or HEK293 cells transfected with the human VR4:pcDNA3.1 V5-His construct, or mock transfected cells, or bovine chondrocytes, were seeded into 96-well microtitre plates at 25,000 cells/well and cultured overnight. The cells were then incubated with 4 microM Fluo-3 for 2 hrs at room temperature in the dark. Dye loaded cells were washed 4× with Tyrodes buffer: (NaCl, 145 mM; KCl, 2.5 mM; Hepes, 10 mM; Glucose, 10 mM; MgC12, 1.2 mM; CaCl2, 1.5 mM), which also contained 0.2% BSA but not probenecid. Agonists and antagonists were also prepared in Tyrodes buffer. Cells were preincubated for 30 mins with antagonist or buffer. Agonist addition and measurement of cytoplasmic calcium concentration was performed in the FLIPR (Smart et al., (2000) Br. J. Pharmacol. 129, 227-230).
# [2] = tested on: wild type HEK293 cells; test: FLIPR cytoplasmic calcium (Fluo-3), wild type HEK293 cells; details: result in words
# Protocol: as §1
# [3] = target: human VR1 (Homo sapiens, UniProt Q8NER1); details: for activity at VR1: result in words; for pEC50 hVR1: increase of intracellular calcium, human VR1, mean ± s.e. mean, n = 3-5, IA = inactive
# human VR1, sequence (Q8NER1 whole entry): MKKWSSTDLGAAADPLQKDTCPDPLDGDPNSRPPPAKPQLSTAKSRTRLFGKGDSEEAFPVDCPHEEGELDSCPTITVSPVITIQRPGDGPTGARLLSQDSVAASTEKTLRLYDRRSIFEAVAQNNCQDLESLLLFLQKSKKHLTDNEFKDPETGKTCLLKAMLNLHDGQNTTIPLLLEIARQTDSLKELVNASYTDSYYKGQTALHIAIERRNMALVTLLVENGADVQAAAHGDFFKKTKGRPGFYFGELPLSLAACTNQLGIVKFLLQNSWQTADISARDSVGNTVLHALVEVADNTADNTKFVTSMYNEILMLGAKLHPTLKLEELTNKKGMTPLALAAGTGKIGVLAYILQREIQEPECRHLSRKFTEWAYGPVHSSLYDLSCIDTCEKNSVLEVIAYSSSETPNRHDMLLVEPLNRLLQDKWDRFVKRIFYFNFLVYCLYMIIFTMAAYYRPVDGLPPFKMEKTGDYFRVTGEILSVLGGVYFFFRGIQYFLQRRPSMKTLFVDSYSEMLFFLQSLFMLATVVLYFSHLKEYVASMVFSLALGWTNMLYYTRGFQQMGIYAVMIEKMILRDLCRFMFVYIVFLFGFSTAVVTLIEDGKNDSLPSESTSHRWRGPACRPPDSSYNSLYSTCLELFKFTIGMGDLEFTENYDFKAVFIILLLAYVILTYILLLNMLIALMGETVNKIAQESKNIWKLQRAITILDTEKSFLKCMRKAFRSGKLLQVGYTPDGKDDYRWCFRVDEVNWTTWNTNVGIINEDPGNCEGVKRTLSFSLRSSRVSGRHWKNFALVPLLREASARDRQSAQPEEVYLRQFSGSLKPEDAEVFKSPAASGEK
# [4] = target: T1, human VR4 (Homo sapiens, UniProt Q9HBA0); test: FLIPR cytoplasmic calcium (Fluo-3), HEK293 cells transfected with human VR4; details: for effect on intracellular calcium in HEK293-VR4 cells: result in words; for pEC50 hVR4: increase of intracellular calcium, mean ± s.e. mean, n = 3-5, IA = inactive; for effect on intracellular calcium in HEK293-VR4 cells / pEC50 hVR4: HEK293-VR4 cells
# T1 construct: V5-His (vector-encoded); expressed in transfected cells; host or cells: HEK293
# T1 sequence (Q9HBA0 whole entry): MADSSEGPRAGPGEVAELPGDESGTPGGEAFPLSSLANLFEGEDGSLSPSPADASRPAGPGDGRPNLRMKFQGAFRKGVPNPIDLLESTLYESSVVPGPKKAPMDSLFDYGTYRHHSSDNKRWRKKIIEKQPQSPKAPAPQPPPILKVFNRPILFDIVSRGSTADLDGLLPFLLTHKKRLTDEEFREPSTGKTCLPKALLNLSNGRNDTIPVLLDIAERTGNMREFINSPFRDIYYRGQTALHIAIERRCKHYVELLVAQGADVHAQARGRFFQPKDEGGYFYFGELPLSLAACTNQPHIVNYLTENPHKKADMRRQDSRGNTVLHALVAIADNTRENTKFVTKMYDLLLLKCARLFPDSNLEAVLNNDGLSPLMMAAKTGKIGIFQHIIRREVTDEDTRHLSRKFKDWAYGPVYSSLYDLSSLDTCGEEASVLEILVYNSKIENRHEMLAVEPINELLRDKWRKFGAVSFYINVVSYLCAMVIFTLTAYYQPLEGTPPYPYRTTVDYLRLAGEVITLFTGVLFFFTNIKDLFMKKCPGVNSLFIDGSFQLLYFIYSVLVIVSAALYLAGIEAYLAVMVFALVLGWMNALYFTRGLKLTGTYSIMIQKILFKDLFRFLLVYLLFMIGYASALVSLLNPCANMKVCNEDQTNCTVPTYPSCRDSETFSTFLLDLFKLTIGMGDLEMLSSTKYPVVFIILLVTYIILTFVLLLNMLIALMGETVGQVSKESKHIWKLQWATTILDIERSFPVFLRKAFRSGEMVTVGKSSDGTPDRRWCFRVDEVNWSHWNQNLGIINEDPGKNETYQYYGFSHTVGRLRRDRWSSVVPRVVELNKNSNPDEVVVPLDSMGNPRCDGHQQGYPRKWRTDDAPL
# Protocol: as §1
# [5] = tested on: VR4 endogenously expressed by chondrocytes; test: FLIPR cytoplasmic calcium (Fluo-3), bovine articular chondrocytes; details: channel blocker against the 4α-PDD response
# Protocol: as §1
# The response was dependent upon extracellular calcium ions and was blocked by the channel blocker ruthenium red.
Structure (SMILES),effect on intracellular calcium in cells transfected with empty vector [1],effect on intracellular calcium in wild type HEK293 cells [2],activity at VR1 [3],effect on intracellular calcium in HEK293-VR4 cells [4],selectivity VR4 over VR1 ([4]; conclusion from pEC50 at hVR4 and hVR1),pEC50 hVR4 [4],Emax at VR1 ([3]; compared to capsaicin and RTX),pEC50 hVR1 [3],block of the response to 4α-PDD in bovine articular chondrocytes [5]
"CCCCCCCCCC(=O)O[C@@H]1[C@@H](C)[C@@]2(O)[C@@H](C=C(CO)C[C@@]3(O)C(=O)C(C)=C[C@@H]23)[C@@H]2C(C)(C)[C@]12OC(=O)CCCCCCCCC [4αPDD, 4α-phorbol-12,13-didecanoate]",without effect,without effect,inactive,increased intracellular calcium,VR4 selective agonist,5.73 ± 0.06,–,–,–
"CCCCCCCCCCCCCC(=O)O[C@@H]1[C@@H](C)[C@@]2(O)[C@@H](C=C(CO)C[C@]3(O)C(=O)C(C)=C[C@@H]23)[C@@H]2C(C)(C)[C@]12OC(C)=O [PMA, phorbol 12-myristate 13-acetate]",without effect,without effect,partial agonist,increased intracellular calcium,–,6.64 ± 0.06,0.46,7.86 ± 0.06,–
N.N.N.N.N.N.N.N.N.N.N.N.N.N.[Cl-].[Cl-].[Cl-].[Cl-].[Cl-].[Cl-].[O-2].[O-2].[Ru+3].[Ru+3].[Ru+4] [ruthenium red],–,–,–,–,–,–,–,–,blocked
C=C(C)[C@]12C[C@@H](C)[C@@]34O[C@](Cc5ccccc5)(O[C@@H]1[C@@H]3C=C(COC(=O)Cc1ccc(O)c(OC)c1)C[C@]1(O)C(=O)C(C)=C[C@@H]41)O2 [RTX],–,–,–,–,–,–,–,8.93 ± 0.20,–
